# Where “and” joins values, the source holds several entries; their conditions need not be identical. Equal entries are not always repeated. Inconclusive results and toxic doses are left out.
# System: L1210 leukemia ip in BDF1 mice, survival T/C
# Assay: NCI In Vivo Anticancer Drug Screen. Data for tumor model L1210 Leukemia (intraperitoneal) in B6D2F1 (BDF1) mice
# Conditions: endpoint: mean survival time, higher = longer survival
# How it was run: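 Tumor cells were implanted, animals were treated, and survival was followed. The result divides the treated measurement by the vehicle-control measurement.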
smiles,measurement,setting,value
O=C(Nc1ccc(C2=NCCN2)cc1)c1ccc(C(=O)Nc2ccc(C3=NCCN3)cc2)cc1,T/C,"dose: 0.62 mg/kg/injection, schedule: Q#A X Z (ip), vehicle: saline",114 % of control
same,T/C,"dose: 0.63 mg/kg/injection, schedule: Q01DX Z (sc), vehicle: saline",104 % of control
same,T/C,"dose: 1.25 mg/kg/injection, schedule: Q01DX Z (ip), vehicle: other",287 % of control
same,T/C,"dose: 1.25 mg/kg/injection, schedule: Q01DX Z (sc), vehicle: saline",101 % of control
same,T/C,"dose: 1.87 mg/kg/injection, schedule: Q01DX Z (ip), vehicle: carboxymethylcellulose (CMC)",112 % of control
same,T/C,"dose: 1.88 mg/kg/injection, schedule: Q03DX Z (ip), vehicle: saline",103 % of control
same,T/C,"dose: 2.5 mg/kg/injection, schedule: Q01DX Z (ip), vehicle: other",158 % of control
same,T/C,"dose: 2.5 mg/kg/injection, schedule: Q01DX Z (sc), vehicle: saline",104 % of control
same,T/C,"dose: 3.75 mg/kg/injection, schedule: Q01DX Z (ip), vehicle: carboxymethylcellulose (CMC)",121 % of control
same,T/C,"dose: 3.75 mg/kg/injection, schedule: Q03DX Z (ip), vehicle: saline",114 % of control
same,T/C,"dose: 4.4 mg/kg/injection, schedule: Q01DX001 (ip), vehicle: saline",103 % of control
same,T/C,"dose: 4.4 mg/kg/injection, schedule: Q07DX Z (ip), vehicle: saline",103 % of control
same,T/C,"dose: 5.0 mg/kg/injection, schedule: Q01DX005 (iv), vehicle: saline",102 % of control
same,T/C,"dose: 5.0 mg/kg/injection, schedule: Q01DX Z (ip), vehicle: acid diluted with saline",243 % of control
same,T/C,"dose: 5.0 mg/kg/injection, schedule: Q01DX Z (ip), vehicle: other",179 % of control
same,T/C,"dose: 5.0 mg/kg/injection, schedule: Q01DX Z (sc), vehicle: saline",101 % of control
same,T/C,"dose: 5.0 mg/kg/injection, schedule: Q#A X Z (ip), vehicle: saline",194 % of control
same,T/C,"dose: 7.5 mg/kg/injection, schedule: Q03DX Z (ip), vehicle: saline",115 % of control
same,T/C,"dose: 8.8 mg/kg/injection, schedule: Q01DX001 (ip), vehicle: saline",97 % of control and 112 % of control
same,T/C,"dose: 8.8 mg/kg/injection, schedule: Q07DX Z (ip), vehicle: saline",105 % of control
same,T/C,"dose: 10.0 mg/kg/injection, schedule: Q01DX005 (iv), vehicle: saline",103 % of control
same,T/C,"dose: 10.0 mg/kg/injection, schedule: Q01DX Z (ip), vehicle: acid diluted with saline",205 % of control
same,T/C,"dose: 10.0 mg/kg/injection, schedule: Q01DX Z (iv), vehicle: acid diluted with saline",123 % of control
same,T/C,"dose: 10.0 mg/kg/injection, schedule: Q01DX Z (sc), vehicle: acid diluted with saline",175 % of control
same,T/C,"dose: 10.0 mg/kg/injection, schedule: Q#A X Z (ip), vehicle: saline",291 % of control
same,T/C,"dose: 15.0 mg/kg/injection, schedule: Q01DX Z (ip), vehicle: carboxymethylcellulose (CMC)",168 % of control and 269 % of control and 197 % of control
same,T/C,"dose: 15.6 mg/kg/injection, schedule: Q01DX Z (sc), vehicle: other",181 % of control
same,T/C,"dose: 17.5 mg/kg/injection, schedule: Q01DX001 (ip), vehicle: saline",112 % of control and 264 % of control
same,T/C,"dose: 20.0 mg/kg/injection, schedule: Q01DX005 (iv), vehicle: saline",115 % of control
same,T/C,"dose: 20.0 mg/kg/injection, schedule: Q01DX Z (ip), vehicle: acid diluted with saline",158 % of control
same,T/C,"dose: 20.0 mg/kg/injection, schedule: Q01DX Z (ip), vehicle: saline",316 % of control
same,T/C,"dose: 20.0 mg/kg/injection, schedule: Q01DX Z (sc), vehicle: acid diluted with saline",165 % of control
same,T/C,"dose: 20.0 mg/kg/injection, schedule: Q#A X Z (ip), vehicle: saline",178 % of control
same,T/C,"dose: 30.0 mg/kg/injection, schedule: Q01DX Z (ip), vehicle: acid diluted with saline",182 % of control
same,T/C,"dose: 30.0 mg/kg/injection, schedule: Q01DX Z (ip), vehicle: carboxymethylcellulose (CMC)",320 % of control
same,T/C,"dose: 30.0 mg/kg/injection, schedule: Q03DX Z (ip), vehicle: saline",200 % of control
same,T/C,"dose: 31.3 mg/kg/injection, schedule: Q01DX004 (im), vehicle: olive oil, sesame oil, peanut oil",97 % of control
same,T/C,"dose: 31.3 mg/kg/injection, schedule: Q01DX004 (im), vehicle: saline",104 % of control
same,T/C,"dose: 31.3 mg/kg/injection, schedule: Q01DX Z (ip), vehicle: other",112 % of control
same,T/C,"dose: 31.3 mg/kg/injection, schedule: Q01DX Z (sc), vehicle: other",195 % of control
same,T/C,"dose: 35.0 mg/kg/injection, schedule: Q07DX Z (ip), vehicle: saline",160 % of control
same,T/C,"dose: 40.0 mg/kg/injection, schedule: Q01DX Z (ip), vehicle: saline",348 % of control
same,T/C,"dose: 40.0 mg/kg/injection, schedule: Q#A X Z (ip), vehicle: saline",210 % of control
same,T/C,"dose: 60.0 mg/kg/injection, schedule: Q01DX Z (ip), vehicle: acid diluted with saline",153 % of control
same,T/C,"dose: 60.0 mg/kg/injection, schedule: Q01DX Z (ip), vehicle: carboxymethylcellulose (CMC)",246 % of control
same,T/C,"dose: 60.0 mg/kg/injection, schedule: Q03DX Z (ip), vehicle: saline",304 % of control
same,T/C,"dose: 62.5 mg/kg/injection, schedule: Q01DX004 (im), vehicle: olive oil, sesame oil, peanut oil",100 % of control
same,T/C,"dose: 62.5 mg/kg/injection, schedule: Q01DX Z (ip), vehicle: other",111 % of control
same,T/C,"dose: 62.5 mg/kg/injection, schedule: Q01DX Z (sc), vehicle: other",158 % of control
same,T/C,"dose: 70.0 mg/kg/injection, schedule: Q01DX001 (ip), vehicle: saline",156 % of control and 161 % of control
same,T/C,"dose: 70.0 mg/kg/injection, schedule: Q07DX Z (ip), vehicle: saline",205 % of control
same,T/C,"dose: 80.0 mg/kg/injection, schedule: Q01DX Z (ip), vehicle: saline",183 % of control
same,T/C,"dose: 80.0 mg/kg/injection, schedule: Q#A X Z (ip), vehicle: saline",210 % of control
same,T/C,"dose: 120.0 mg/kg/injection, schedule: Q01DX Z (ip), vehicle: acid diluted with saline",176 % of control
same,T/C,"dose: 120.0 mg/kg/injection, schedule: Q01DX Z (ip), vehicle: carboxymethylcellulose (CMC)",115 % of control and 204 % of control
same,T/C,"dose: 120.0 mg/kg/injection, schedule: Q03DX Z (ip), vehicle: saline",243 % of control and 252 % of control
same,T/C,"dose: 125.0 mg/kg/injection, schedule: Q01DX004 (im), vehicle: olive oil, sesame oil, peanut oil",100 % of control
same,T/C,"dose: 125.0 mg/kg/injection, schedule: Q01DX Z (ip), vehicle: other",97 % of control
same,T/C,"dose: 125.0 mg/kg/injection, schedule: Q01DX Z (sc), vehicle: other",161 % of control
same,T/C,"dose: 140.0 mg/kg/injection, schedule: Q01DX001 (ip), vehicle: saline",223 % of control
same,T/C,"dose: 140.0 mg/kg/injection, schedule: Q07DX Z (ip), vehicle: saline",282 % of control
same,T/C,"dose: 160.0 mg/kg/injection, schedule: Q01DX Z (ip), vehicle: saline",174 % of control
same,T/C,"dose: 160.0 mg/kg/injection, schedule: Q#A X Z (ip), vehicle: saline",176 % of control
same,T/C,"dose: 250.0 mg/kg/injection, schedule: Q01DX004 (im), vehicle: olive oil, sesame oil, peanut oil",121 % of control
same,T/C,"dose: 250.0 mg/kg/injection, schedule: Q01DX004 (im), vehicle: saline",204 % of control and 208 % of control
same,T/C,"dose: 250.0 mg/kg/injection, schedule: Q01DX Z (sc), vehicle: other",168 % of control
same,T/C,"dose: 250.0 mg/kg/injection, schedule: Q01DX Z (sc), vehicle: saline",217 % of control
same,T/C,"dose: 280.0 mg/kg/injection, schedule: Q07DX Z (ip), vehicle: saline",250 % of control and 327 % of control
same,T/C,"dose: 320.0 mg/kg/injection, schedule: Q01DX Z (ip), vehicle: saline",162 % of control
same,T/C,"dose: 480.0 mg/kg/injection, schedule: Q03DX Z (ip), vehicle: saline",194 % of control
same,T/C,"dose: 500.0 mg/kg/injection, schedule: Q01DX004 (im), vehicle: saline",262 % of control
same,T/C,"dose: 500.0 mg/kg/injection, schedule: Q01DX Z (sc), vehicle: saline",195 % of control
same,T/C,"dose: 560.0 mg/kg/injection, schedule: Q01DX001 (ip), vehicle: saline",184 % of control and 210 % of control
same,T/C,"dose: 560.0 mg/kg/injection, schedule: Q07DX Z (ip), vehicle: saline",261 % of control
same,T/C,"dose: 640.0 mg/kg/injection, schedule: Q01DX Z (ip), vehicle: saline",124 % of control
same,T/C,"dose: 750.0 mg/kg/injection, schedule: Q01DX Z (sc), vehicle: saline",183 % of control and 290 % of control
same,T/C,"dose: 960.0 mg/kg/injection, schedule: Q03DX Z (ip), vehicle: saline",164 % of control
same,T/C,"dose: 1000.0 mg/kg/injection, schedule: Q01DX004 (im), vehicle: saline",267 % of control
same,T/C,"dose: 1112.0 mg/kg/injection, schedule: Q01DX001 (ip), vehicle: saline",157 % of control
same,T/C,"dose: 1500.0 mg/kg/injection, schedule: Q01DX Z (sc), vehicle: saline",215 % of control
same,T/C,"dose: 18.8 micrograms/kg/injection, schedule: Q01DX Z (ip), vehicle: saline",96 % of control
same,T/C,"dose: 37.5 micrograms/kg/injection, schedule: Q01DX Z (ip), vehicle: saline",96 % of control
same,T/C,"dose: 75.0 micrograms/kg/injection, schedule: Q01DX Z (ip), vehicle: saline",100 % of control
same,T/C,"dose: 150.0 micrograms/kg/injection, schedule: Q01DX Z (ip), vehicle: saline",94 % of control
same,T/C,"dose: 230.0 micrograms/kg/injection, schedule: Q01DX Z (ip), vehicle: carboxymethylcellulose (CMC)",98 % of control
same,T/C,"dose: 460.0 micrograms/kg/injection, schedule: Q01DX Z (ip), vehicle: carboxymethylcellulose (CMC)",118 % of control
same,T/C,"dose: 930.0 micrograms/kg/injection, schedule: Q01DX Z (ip), vehicle: carboxymethylcellulose (CMC)",113 % of control
